Assay results: patent US20110201815A1, “FUSED HETEROCYCLIC DERIVATIVE AND USE THEREOF FOR MEDICAL PURPOSES” (KISSEI PHARMACEUTICAL CO., LTD., priority 2008, published 2011)

What was measured:
[1] = biological target: T1, Xanthine oxidase (from bovine milk, Sigma) (Bos taurus, UniProt P80457); test: Xanthine oxidase inhibitory activity; format: biochemical; conditions: xanthine 200 μM added, 10 minutes at room temperature, absorbance at 290 nm
T1 construct: Xanthine oxidase (from bovine milk, Sigma); purchased Sigma; host or cells: bovine milk
Method: Test compounds were dissolved in DMSO (Wako) at 40 mM concentration and then diluted to intended concentrations with phosphate-buffered saline (PBS).
Xanthine oxidase (from bovine milk, Sigma) was prepared with phosphate-buffered saline (PBS) at 0.02 units/mL, and then the solution was added to 96 well plates at 50 μL/well. In addition, test compounds diluted with PBS were added at 50 μL/well. Xanthine (Wako) at 200 μM prepared with PBS was added at 100 μL/well, and the reaction was measured for 10 minutes at room temperature. […] The absorbance under a condition without xanthine is 0%, and control without test compounds is 100%. Fifty % inhibitory concentration (IC50) of test compounds was calculated (Table 5). Ex. No in the table indicates example number.

human URAT1 = biological target: T2, human URAT1 (Homo sapiens, UniProt Q96S37); test: Inhibitory activity of uric acid transport with human URAT1 expressing cells; format: cell-based; conditions: COS-7; concentration of 100 μM; 14C-uric acid uptake in COS7 cells transiently expressing human URAT1, 20 μM uric acid, 5 minutes; read-out: Percent inhibition
T2 construct: expressed in transfected cells; host or cells: COS7 cells (RIKEN CELL BANK RCB0539), transient transfection with pcDNA3.1
T2 sequence (Q96S37 1-553): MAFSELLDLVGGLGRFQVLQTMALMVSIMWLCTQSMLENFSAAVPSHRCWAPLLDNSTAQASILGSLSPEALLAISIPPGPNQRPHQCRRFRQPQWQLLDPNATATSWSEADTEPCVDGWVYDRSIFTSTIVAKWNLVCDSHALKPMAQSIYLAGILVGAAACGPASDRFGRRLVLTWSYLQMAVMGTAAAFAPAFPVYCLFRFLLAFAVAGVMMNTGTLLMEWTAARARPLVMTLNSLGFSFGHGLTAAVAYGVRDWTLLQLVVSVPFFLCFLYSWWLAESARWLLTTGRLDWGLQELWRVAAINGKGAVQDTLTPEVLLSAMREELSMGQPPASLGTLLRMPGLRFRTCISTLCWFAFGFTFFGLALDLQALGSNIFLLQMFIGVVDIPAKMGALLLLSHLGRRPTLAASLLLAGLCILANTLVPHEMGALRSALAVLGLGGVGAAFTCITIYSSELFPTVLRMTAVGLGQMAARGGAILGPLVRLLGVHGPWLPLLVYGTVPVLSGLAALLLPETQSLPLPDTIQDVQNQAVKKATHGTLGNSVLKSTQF
Method: Full length human URAT1 cDNA (NCBI Accession No. NM_144585) was subcloned into expression vector, pcDNA3.1 (Invitrogen). Human URAT1 expression vector was transfected into COS7 cells (RIKEN CELL BANK RCB0539) using Lipofectamine 2000 (Invitrogen). COS7 cells were seeded in collagen-coated 24 well plates (Japan Becton Dickinson) at 90-95% confluency and cultured in D-MEM culture medium (Invitrogen) containing 10% fetal bovine serum (Sanko Junyaku) for 2 hours at 37° C. under the condition of 5% CO2. For 1 well, 2 μL of Lipofectamine 2000 was diluted in 50 μL of OPTI-MEM (Invitrogen) and allowed to stand at room temperature for 7 minutes (hereinafter referred to as Lipo2000-OPTI). For 1 well, 0.8 μg of human URAT1 expression vector was diluted in 50 μL of OPTI-MEM (Invitrogen) and combined gently with Lipo2000-OPTI. After standing at room temperature for 25 minutes, the mixture was added to COS7 cells at 100 μL/well. […]
All tests were performed on hot-plate at 37° C. […] After mixing, the radioactivity was counted in a liquid scintillation counter (PerkinElmer). The radioactivity in COS7 cells not transfected with URAT1 expression vector was also counted under the same condition as control. […]
A: Radioactivity in control B: Radioactivity in the case of addition of test compounds C: Radioactivity in COS7 cells not transfected with URAT1 expression vector

T1 sequence (P80457 whole entry): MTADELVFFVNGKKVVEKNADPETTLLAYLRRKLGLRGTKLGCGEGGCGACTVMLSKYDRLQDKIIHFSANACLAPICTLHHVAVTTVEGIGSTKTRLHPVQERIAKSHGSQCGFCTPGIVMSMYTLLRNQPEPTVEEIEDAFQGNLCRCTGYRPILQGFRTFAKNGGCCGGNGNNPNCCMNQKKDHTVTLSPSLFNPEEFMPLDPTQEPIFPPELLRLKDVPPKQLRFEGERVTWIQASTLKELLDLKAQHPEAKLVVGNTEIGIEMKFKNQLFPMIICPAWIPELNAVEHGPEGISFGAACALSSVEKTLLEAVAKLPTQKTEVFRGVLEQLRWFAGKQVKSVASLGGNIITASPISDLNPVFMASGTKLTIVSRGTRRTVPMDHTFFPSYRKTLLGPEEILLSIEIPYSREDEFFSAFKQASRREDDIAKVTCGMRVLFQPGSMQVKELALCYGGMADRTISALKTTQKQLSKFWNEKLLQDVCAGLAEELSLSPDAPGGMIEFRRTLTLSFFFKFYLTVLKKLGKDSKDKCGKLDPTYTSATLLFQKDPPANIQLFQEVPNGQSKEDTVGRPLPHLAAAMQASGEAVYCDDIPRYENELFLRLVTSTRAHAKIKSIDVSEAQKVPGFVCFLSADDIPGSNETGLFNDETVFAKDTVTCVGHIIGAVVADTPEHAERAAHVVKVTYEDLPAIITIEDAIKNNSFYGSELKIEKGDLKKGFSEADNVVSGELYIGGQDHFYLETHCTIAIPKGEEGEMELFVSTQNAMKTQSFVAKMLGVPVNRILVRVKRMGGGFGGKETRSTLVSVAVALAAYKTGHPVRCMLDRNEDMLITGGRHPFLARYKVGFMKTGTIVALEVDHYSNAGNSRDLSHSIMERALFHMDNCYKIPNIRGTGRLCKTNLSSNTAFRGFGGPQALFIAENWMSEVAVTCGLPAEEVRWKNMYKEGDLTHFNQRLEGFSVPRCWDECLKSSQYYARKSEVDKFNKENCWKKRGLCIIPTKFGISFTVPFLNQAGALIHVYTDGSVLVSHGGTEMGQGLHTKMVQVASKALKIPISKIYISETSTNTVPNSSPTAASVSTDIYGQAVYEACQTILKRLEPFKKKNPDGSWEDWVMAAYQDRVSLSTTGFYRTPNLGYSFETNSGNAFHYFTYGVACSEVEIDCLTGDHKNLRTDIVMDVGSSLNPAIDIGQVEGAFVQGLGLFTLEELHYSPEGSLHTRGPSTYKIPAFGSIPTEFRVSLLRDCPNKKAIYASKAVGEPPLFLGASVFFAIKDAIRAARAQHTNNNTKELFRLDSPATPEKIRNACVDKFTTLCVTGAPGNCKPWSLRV

Row | Structure (SMILES) | IC50 [1] [nM] | inhibition at 100 µM (human URAT1) [%]
1 | Cc1nc(-c2cc(C#N)c3c(c2)c(C)cn3C)sc1C(=O)O [Example 1, 2-(7-Cyano-1,3-dimethyl-1H-indole-5-yl)-4-methylthiazole-5-carboxylic acid] | 19 | 
2 | Cn1ccc2cc(-c3cc(C(=O)O)ccn3)cc([N+](=O)[O-])c21 [Example 2, 2-(1-Methyl-7-nitro-1H-indole-5-yl) isonicotinic acid] | 48 | > 80
3 | O=C(O)c1ccnc(-c2cc([N+](=O)[O-])c3occc3c2)c1 [Example 4, 2-(7-Nitrobenzofuran-5-yl) isonicotinic acid] | 254 | 
4 | Cc1nc(-c2cc(C#N)c3c(c2)c(C)cn3CC(C)C)sc1C(=O)O [Example 7] | 31 | 
5 | CC(C)Cn1ccc2cc(-c3cc(C(=O)O)ccn3)cc([N+](=O)[O-])c21 [Example 9] | 13 | 
6 | COCCn1ccc2cc(-c3cc(C(=O)O)ccn3)cc([N+](=O)[O-])c21 [Example 10] | 114 | 
7 | Cn1ccc2cc(-c3cc(C(=O)O)ccn3)cc(C#N)c21 [Example 12, 2-(7-Cyano-1-methyl-1H-indole-5-yl) isonicotinic acid] | 17 | 

Molecules with a lower IC50 [1], results first:

Row | IC50 [1] [nM] | inhibition at 100 µM (human URAT1) [%] | Structure (SMILES)
8 | 8 |  | Cc1nc(-c2cc([N+](=O)[O-])c3c(ccn3C)c2)sc1C(=O)O [Example 3, 4-Methyl-2-(1-methyl-7-nitro-1H-indole-5-yl) thiazole-5-carboxylic acid]
9 | 10 |  | Cc1nc(-c2cc(C#N)c3c(c2)c(C)cn3C(C)C)sc1C(=O)O [Example 8]
10 | 12 |  | N#Cc1cc(-c2cc(C(=O)O)ccn2)cc2cc[nH]c12 [Example 11, 2-(7-Cyano-1H-indole-5-yl) isonicotinic acid]
11 | 7 |  | Cc1nc(-c2cc(C#N)c3[nH]ccc3c2)sc1C(=O)O [Example 13]
